US20250034515A1, “Method of Production of Organoids and Uses Thereof” (Université de Strasbourg, priority 2021, published 2025)

Tested on: Aspc-1 cells
Assay: Viability of pancreatic cancerous 3D organoids in liquid pearls (Calcein-AM / propidium iodide, Celigo image cytometry)
Type: cell-based, human
Conditions: AsPC-1 organoids in liquid pearls; Gemcitabine 80 μM
Description: FIG. 4. Effects of an ethanolic plant extract on 3D cultured cells viability. Pancreatic cancer cells seeded at 10^5 cells/mL were injected and grown in liquid pearls at a volume of 150 μL for 24 hours, then exposed to ethanolic extract #138-10D (80 μg/ml), vehicle or Gemcitabine (80 μM). After 24 hours of incubation, the cells were labeled (Calcein-AM=green-living cells and propidium iodide=red-dead cells). The composite image of the two channels was analyzed by imaging cytometry.
In a first step, medium filling the pearls is prepared using DMEMhigh glucose complete medium supplemented by 1.2% of methylcellulose solution (MC) at a ratio of 4 to 1. For spheroid generation, 150 μL of pearls medium were dispensed onto fumed silica-coated 6-well plates, then Aspc-1 cells, at a density of 10,000 cells/mL, were directly injected into each pearl. The injected pearls were then incubated in a humidified incubator at 37 C° and 5% CO2.
After 24 hours, 50 μL of complete medium containing the different extracts (final concentration 80 μg/mL) were injected into each pearl and incubated for an additional 48 hours. […] Pearls containing cancerous organoids were finally analyzed on Celigo image cytometer (Cyntellect Inc, San Diego, CA, USA).

## Nc1ccn([C@@H]2O[C@H](CO)[C@@H](O)C2(F)F)c(=O)n1 [Gemcitabine]
  activity on AsPC-1 cells (3D cultured cells viability): only active on AsPC-1 cells at a concentration of 80 μM
